In BindingDB's records for patent US12552758 (Neophore, 2026):

Tests used:
[1] = biological target: T1, Mismatch repair endonuclease PMS2 (UniProt P54278); assay: Fluorescence Polarisation Assay for PMS2
T1 sequence (P54278 whole entry): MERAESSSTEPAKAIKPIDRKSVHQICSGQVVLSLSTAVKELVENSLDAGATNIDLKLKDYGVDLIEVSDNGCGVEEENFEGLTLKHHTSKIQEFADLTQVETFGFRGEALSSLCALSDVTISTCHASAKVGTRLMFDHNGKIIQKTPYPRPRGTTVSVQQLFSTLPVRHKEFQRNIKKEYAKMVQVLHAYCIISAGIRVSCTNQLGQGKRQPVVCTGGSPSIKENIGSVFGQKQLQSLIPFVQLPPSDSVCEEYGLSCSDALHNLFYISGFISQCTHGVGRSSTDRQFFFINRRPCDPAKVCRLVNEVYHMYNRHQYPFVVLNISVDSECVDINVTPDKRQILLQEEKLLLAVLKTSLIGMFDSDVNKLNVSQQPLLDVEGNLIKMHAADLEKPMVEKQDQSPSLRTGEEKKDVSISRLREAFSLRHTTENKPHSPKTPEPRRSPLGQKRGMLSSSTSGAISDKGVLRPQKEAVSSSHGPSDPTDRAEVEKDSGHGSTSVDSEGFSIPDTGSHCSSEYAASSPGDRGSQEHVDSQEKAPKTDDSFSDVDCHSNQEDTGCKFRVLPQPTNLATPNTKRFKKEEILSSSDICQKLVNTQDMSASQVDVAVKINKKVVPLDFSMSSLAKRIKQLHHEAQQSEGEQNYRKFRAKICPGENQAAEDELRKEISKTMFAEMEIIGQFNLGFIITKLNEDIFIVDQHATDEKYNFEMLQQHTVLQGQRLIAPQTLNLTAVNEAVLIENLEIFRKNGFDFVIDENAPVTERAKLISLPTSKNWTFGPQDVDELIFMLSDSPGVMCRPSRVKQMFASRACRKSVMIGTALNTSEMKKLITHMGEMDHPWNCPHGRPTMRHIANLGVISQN
Procedure: 20 μL assay buffer was added to all wells in columns 1 and 24 (column 24 only for single point screening) using a MultiDrop Combi (ThermoFisher). Plates were centrifuged for 1 minute at 250×g and were incubated at room temperature for 30 minutes prior to the addition of 20 μL of 2×([…]) of 5-((5-(4-((2-(2,4-dihydroxy-5-isopropylbenzoyl)isoindolin-5-yl)methyl)piperazin-1-yl)pentyl)carbamoyl)-2-(6-(dimethylamino)-3-(dimethyliminio)-3H-xanthen-9-yl)benzoate (referred to hereinafter as “probe compound”) in assay buffer (prepared from a 100 μM DMSO stock) with a MultiDrop Combi (ThermoFisher). The final concentration of N-terminal PMS2 was 10 nM and the final concentration of probe compound was 5 nM.

[2] = biological target: T2, DNA mismatch repair protein Mlh1 (UniProt P40692); assay: Fluorescence Polarisation Assay for MLH1
T2 sequence (P40692 whole entry): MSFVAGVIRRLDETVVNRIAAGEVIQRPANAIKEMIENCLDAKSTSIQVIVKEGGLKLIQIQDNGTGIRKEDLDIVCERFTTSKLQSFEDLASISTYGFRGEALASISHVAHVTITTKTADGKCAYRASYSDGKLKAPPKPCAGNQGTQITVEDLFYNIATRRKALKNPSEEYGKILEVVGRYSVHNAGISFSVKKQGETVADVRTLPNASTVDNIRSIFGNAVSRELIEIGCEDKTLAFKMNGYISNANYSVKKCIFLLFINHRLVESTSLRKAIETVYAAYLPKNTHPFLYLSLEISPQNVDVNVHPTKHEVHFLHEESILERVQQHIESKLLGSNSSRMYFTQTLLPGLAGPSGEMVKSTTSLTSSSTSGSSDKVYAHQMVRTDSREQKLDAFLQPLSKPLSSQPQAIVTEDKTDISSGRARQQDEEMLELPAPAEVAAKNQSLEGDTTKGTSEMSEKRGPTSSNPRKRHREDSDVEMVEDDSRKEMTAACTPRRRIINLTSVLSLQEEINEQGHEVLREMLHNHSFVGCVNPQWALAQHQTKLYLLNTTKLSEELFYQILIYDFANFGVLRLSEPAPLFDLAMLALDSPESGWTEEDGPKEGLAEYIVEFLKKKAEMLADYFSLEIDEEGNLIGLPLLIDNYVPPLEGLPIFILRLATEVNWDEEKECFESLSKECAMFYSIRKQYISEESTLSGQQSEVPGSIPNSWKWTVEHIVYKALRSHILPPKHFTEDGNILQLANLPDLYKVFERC
Procedure: 20 μL assay buffer was added to all wells in columns 1 and 24 (column 24 only for single point screening) using a MultiDrop Combi (ThermoFisher). Plates were centrifuged for 1 minute at 250×g and were incubated at room temperature for 30 minutes prior to the addition of 20 μL of 2×(10 nM) of 5-((5-(4-((2-(2,4-dihydroxy-5-isopropylbenzoyl)isoindolin-5-yl)methyl)piperazin-1-yl)pentyl)carbamoyl)-2-(6-(dimethylamino)-3-(dimethyliminio)-3H-xanthen-9-yl)benzoate (referred to hereinafter as “probe compound”) in assay buffer (prepared from a 100 μM DMSO stock) with a MultiDrop Combi (ThermoFisher). The final concentration of N-terminal MLH1 was 100 nM and the final concentration of probe compound was 5 nM.

Row | Compound | IC50 [1] | IC50 [2]
1 | Cc1c(O)cc(O)c(C(=O)N2Cc3cccnc3C2)c1OCc1ccccc1 [US12552758, Example 30] | < 1 µM | > 10 µM
2 | Cc1c(O)cc(O)c(C(=O)N2Cc3cccc(Br)c3C2)c1OCc1ccccc1 [US12552758, Example 38] | < 1 µM | > 10 µM
